Measurements as given in ChEMBL document CHEMBL1154277, “Discovery of N-substituted pyridinones as potent and selective inhibitors of p38 kinase” (Bioorg Med Chem Lett, 2009).

How the values were obtained:
[1] = target: Serine/threonine-protein kinase TBK1 (Homo sapiens) (UniProt Q9UHD2); assay: Inhibition of TBK1 at 10 uM
[2] = target: Interleukin-1 receptor-associated kinase 4 (Homo sapiens) (UniProt Q9NWZ3); assay: Inhibition of IRAK4 at 10 uM
[3] = target: NT-3 growth factor receptor (Homo sapiens) (UniProt Q16288); assay: Inhibition of TRKC at 10 uM
[4] = target: Serine/threonine-protein kinase D3 (Homo sapiens) (UniProt O94806); assay: Inhibition of PKD3 at 10 uM
[5] = target: Homeodomain-interacting protein kinase 2 (Homo sapiens) (UniProt Q9H2X6); assay: Inhibition of HIPK2 at 10 uM
[6] = target: Serine/threonine-protein kinase Chk2 (Homo sapiens) (UniProt O96017); assay: Inhibition of CHK2 at 10 uM
[7] = target: Tyrosine-protein kinase SYK (Homo sapiens) (UniProt P43405); assay: Inhibition of SYK at 10 uM
[8] = target: High affinity nerve growth factor receptor (Homo sapiens) (UniProt P04629); assay: Inhibition of TRKA at 10 uM
[9] = target: Protein kinase C delta type (Homo sapiens) (UniProt Q05655); assay: Inhibition of PKCdelta at 10 uM
[10] = target: Cyclin-dependent kinase 2/cyclin A (Homo sapiens) (UniProt P24941+P20248+P78396); assay: Inhibition of CDK2/cyclinA at 10 uM; assay type: protein-complex assay
[11] = target: Aurora kinase B (Homo sapiens) (UniProt Q96GD4); assay: Inhibition of Aurora B at 10 uM
[12] = target: Mitogen-activated protein kinase kinase kinase 9 (Homo sapiens) (UniProt P80192); assay: Inhibition of MLK1 at 10 uM
[13] = target: Tyrosine-protein kinase CSK (Homo sapiens) (UniProt P41240); assay: Inhibition of CSK at 10 uM
[14] = target: Dual specificity tyrosine-phosphorylation-regulated kinase 3 (Homo sapiens) (UniProt O43781); assay: Inhibition of DYRK3 at 10 uM
[15] = target: Protein-tyrosine kinase 2-beta (Homo sapiens) (UniProt Q14289); assay: Inhibition of FAK2 at 10 uM
[16] = target: Mitogen-activated protein kinase 13 (Homo sapiens) (UniProt O15264); assay: Inhibition of p38delta at 10 uM
[17] = target: Proto-oncogene tyrosine-protein kinase ROS (Homo sapiens) (UniProt P08922); assay: Inhibition of ROS1 at 10 uM
[18] = target: Macrophage colony-stimulating factor 1 receptor (Homo sapiens) (UniProt P07333); assay: Inhibition of CSF1R at 10 uM
[19] = target: Hepatocyte growth factor receptor (Homo sapiens) (UniProt P08581); assay: Inhibition of cMet at 10 uM
[20] = target: Cyclin-dependent kinase 5/CDK5 activator 1 (Homo sapiens) (UniProt Q00535+Q15078); assay: Inhibition of CDK5/p25 at 10 uM; assay type: protein-complex assay
[21] = target: Protein-tyrosine kinase 6 (Homo sapiens) (UniProt Q13882); assay: Inhibition of Brk at 10 uM
[22] = test system: Platelet-derived growth factor receptor alpha (Homo sapiens), P16234 [D842V]; assay: Inhibition of PDGFRalpha D842V (mutant) at 10 uM
[23] = target: G protein-coupled receptor kinase 3 (Homo sapiens) (UniProt P35626); assay: Inhibition of GRK3 at 10 uM
[24] = target: Dual specificity protein kinase CLK2 (Homo sapiens) (UniProt P49760); assay: Inhibition of CLK2 at 10 uM
[25] = test system: Epidermal growth factor receptor (Homo sapiens), P00533 [L858R]; assay: Inhibition of EGFR L858R (mutant) at 10 uM; assay type: protein assay
[26] = target: SRSF protein kinase 3 (Homo sapiens) (UniProt Q9UPE1); assay: Inhibition of MSSK1 at 10 uM
[27] = target: MAP/microtubule affinity-regulating kinase 4 (Homo sapiens) (UniProt Q96L34); assay: Inhibition of MARK4 at 10 uM
[28] = target: Inhibitor of nuclear factor kappa-B kinase subunit epsilon (Homo sapiens) (UniProt Q14164); assay: Inhibition of IKKepsilon at 10 uM
[29] = target: Angiopoietin-1 receptor (Homo sapiens) (UniProt Q02763); assay: Inhibition of Tie2 at 10 uM
[30] = target: Serine/threonine-protein kinase Sgk1 (Homo sapiens) (UniProt O00141); assay: Inhibition of SGK1 at 10 uM
[31] = target: Leukocyte tyrosine kinase receptor (Homo sapiens) (UniProt P29376); assay: Inhibition of LTK at 10 uM
[32] = target: Serine/threonine-protein kinase 26 (Homo sapiens) (UniProt Q9P289); assay: Inhibition of MST4 at 10 uM
[33] = target: Ribosomal protein S6 kinase alpha-2 (Homo sapiens) (UniProt Q15349); assay: Inhibition of RSK3 at 10 uM
[34] = target: Serine/threonine-protein kinase 25 (Homo sapiens) (UniProt O00506); assay: Inhibition of YSK1 at 10 uM
[35] = target: Receptor tyrosine-protein kinase erbB-2 (Homo sapiens) (UniProt P04626); assay: Inhibition of ERBB2 at 10 uM
[36] = target: Calcium/calmodulin-dependent protein kinase type IV (Homo sapiens) (UniProt Q16566); assay: Inhibition of CAMK4 at 10 uM
[37] = target: RAF proto-oncogene serine/threonine-protein kinase (Homo sapiens) (UniProt P04049); assay: Inhibition of cRAF at 10 uM
[38] = target: Ephrin type-B receptor 4 (Homo sapiens) (UniProt P54760); assay: Inhibition of EPHB4 at 10 uM
[39] = target: Ephrin type-A receptor 4 (Homo sapiens) (UniProt P54764); assay: Inhibition of EPHA4 at 10 uM
[40] = target: Calcium/calmodulin-dependent protein kinase type 1 (Homo sapiens) (UniProt Q14012); assay: Inhibition of CAMK1 at 10 uM
[41] = target: Tyrosine-protein kinase JAK3 (Homo sapiens) (UniProt P52333); assay: Inhibition of JAK3 at 10 uM
[42] = target: AMP-activated protein kinase (AMPK) alpha-1/beta-1/gamma-1 (Homo sapiens) (UniProt P54619+Q9Y478+Q13131); assay: Inhibition of AMPK alpha-1/beta-1/gamma-1 at 10 uM; assay type: protein-complex assay
[43] = target: Serine/threonine-protein kinase BRSK1 (Homo sapiens) (UniProt Q8TDC3); assay: Inhibition of BRSK1 at 10 uM
[44] = target: SRSF protein kinase 2 (Homo sapiens) (UniProt P78362); assay: Inhibition of SRPK2 at 10 uM
[45] = target: Rhodopsin kinase GRK7 (Homo sapiens) (UniProt Q8WTQ7); assay: Inhibition of GRK7 at 10 uM
[46] = target: Aurora kinase C (Homo sapiens) (UniProt Q9UQB9); assay: Inhibition of Aurora C at 10 uM
[47] = target: Tyrosine-protein kinase ABL1 (Homo sapiens) (UniProt P00519); assay: Inhibition of ABL1 at 10 uM

Measured: inhibition

Chain of Inhibitor of nuclear factor kappa-B kinase subunit epsilon (Homo sapiens) (Q14164 whole entry): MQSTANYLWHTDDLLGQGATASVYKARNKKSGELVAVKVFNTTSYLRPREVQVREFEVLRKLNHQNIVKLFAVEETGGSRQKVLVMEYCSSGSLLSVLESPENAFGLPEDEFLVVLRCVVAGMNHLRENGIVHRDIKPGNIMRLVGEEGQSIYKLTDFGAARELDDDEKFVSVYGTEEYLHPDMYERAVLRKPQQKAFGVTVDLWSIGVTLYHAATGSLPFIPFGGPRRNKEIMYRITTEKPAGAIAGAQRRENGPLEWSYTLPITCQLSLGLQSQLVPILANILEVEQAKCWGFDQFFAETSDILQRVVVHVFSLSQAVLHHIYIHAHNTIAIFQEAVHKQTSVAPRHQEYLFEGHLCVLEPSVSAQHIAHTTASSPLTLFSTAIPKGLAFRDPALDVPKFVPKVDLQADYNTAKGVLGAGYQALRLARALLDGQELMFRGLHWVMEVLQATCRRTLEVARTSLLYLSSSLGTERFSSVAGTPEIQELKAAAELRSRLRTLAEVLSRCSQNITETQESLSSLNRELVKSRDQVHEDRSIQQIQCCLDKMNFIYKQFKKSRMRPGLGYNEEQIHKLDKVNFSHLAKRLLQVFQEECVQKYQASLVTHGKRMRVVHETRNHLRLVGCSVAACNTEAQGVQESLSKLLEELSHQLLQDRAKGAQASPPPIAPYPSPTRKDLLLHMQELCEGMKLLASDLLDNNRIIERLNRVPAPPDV
Chain of MAP/microtubule affinity-regulating kinase 4 (Homo sapiens) (Q96L34 whole entry): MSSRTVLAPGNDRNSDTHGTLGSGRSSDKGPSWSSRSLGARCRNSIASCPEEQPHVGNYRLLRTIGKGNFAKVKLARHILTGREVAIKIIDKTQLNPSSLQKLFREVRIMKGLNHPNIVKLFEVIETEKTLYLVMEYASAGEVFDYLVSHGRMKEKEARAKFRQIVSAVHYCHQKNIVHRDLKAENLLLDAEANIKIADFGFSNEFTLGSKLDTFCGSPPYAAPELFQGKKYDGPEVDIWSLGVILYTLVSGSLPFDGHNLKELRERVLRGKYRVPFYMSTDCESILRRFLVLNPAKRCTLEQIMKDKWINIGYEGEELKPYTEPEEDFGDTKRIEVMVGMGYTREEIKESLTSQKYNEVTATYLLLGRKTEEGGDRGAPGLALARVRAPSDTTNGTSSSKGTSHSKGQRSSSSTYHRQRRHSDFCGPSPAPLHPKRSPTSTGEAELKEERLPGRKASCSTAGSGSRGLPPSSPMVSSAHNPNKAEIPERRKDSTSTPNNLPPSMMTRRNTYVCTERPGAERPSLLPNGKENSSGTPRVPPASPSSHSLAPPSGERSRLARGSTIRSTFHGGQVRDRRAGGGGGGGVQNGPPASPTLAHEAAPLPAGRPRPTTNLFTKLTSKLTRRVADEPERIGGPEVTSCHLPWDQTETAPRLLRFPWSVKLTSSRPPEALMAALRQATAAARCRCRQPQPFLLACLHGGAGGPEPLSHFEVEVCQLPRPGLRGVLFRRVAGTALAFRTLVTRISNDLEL
Chain of Serine/threonine-protein kinase BRSK1 (Homo sapiens) (Q8TDC3 whole entry): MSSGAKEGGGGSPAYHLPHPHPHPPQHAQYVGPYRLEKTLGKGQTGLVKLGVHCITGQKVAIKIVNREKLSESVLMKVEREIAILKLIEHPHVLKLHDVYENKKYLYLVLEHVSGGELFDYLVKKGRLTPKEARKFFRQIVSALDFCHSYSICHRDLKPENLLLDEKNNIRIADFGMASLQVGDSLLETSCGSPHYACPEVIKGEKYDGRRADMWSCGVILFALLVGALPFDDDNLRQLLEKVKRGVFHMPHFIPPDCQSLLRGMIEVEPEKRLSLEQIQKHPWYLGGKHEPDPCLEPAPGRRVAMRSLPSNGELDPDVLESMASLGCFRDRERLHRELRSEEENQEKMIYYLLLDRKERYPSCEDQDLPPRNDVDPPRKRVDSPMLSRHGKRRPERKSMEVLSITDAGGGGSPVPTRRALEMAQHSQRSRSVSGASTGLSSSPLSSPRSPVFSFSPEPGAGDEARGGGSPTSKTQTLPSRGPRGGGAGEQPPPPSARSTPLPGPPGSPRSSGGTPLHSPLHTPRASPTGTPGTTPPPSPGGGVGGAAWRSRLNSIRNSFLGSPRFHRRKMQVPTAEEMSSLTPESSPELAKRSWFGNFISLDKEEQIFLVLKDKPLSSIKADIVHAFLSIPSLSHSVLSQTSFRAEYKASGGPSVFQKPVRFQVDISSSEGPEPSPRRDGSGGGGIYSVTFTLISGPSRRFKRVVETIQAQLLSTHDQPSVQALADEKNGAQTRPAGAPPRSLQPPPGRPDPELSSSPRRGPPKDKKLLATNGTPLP
Chain of SRSF protein kinase 2 (Homo sapiens) (P78362 whole entry, looked up): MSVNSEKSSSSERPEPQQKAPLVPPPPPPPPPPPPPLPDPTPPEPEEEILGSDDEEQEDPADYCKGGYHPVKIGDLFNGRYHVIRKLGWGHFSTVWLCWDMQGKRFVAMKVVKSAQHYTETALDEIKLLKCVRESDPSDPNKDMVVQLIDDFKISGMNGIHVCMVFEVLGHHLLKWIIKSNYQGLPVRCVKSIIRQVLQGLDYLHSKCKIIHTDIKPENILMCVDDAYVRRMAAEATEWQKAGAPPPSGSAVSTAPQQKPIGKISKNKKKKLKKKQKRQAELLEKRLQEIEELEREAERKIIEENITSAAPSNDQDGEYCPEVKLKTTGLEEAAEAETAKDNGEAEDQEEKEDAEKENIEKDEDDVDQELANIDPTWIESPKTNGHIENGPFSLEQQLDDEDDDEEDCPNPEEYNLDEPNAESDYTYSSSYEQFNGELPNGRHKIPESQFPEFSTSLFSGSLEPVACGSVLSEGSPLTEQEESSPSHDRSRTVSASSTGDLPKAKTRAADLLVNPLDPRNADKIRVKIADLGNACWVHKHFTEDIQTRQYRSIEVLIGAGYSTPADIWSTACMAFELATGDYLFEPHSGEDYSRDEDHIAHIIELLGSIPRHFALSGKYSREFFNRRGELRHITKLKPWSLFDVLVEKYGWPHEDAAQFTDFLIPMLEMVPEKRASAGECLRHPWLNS
Chain of Tyrosine-protein kinase ABL1 (Homo sapiens) (P00519 whole entry): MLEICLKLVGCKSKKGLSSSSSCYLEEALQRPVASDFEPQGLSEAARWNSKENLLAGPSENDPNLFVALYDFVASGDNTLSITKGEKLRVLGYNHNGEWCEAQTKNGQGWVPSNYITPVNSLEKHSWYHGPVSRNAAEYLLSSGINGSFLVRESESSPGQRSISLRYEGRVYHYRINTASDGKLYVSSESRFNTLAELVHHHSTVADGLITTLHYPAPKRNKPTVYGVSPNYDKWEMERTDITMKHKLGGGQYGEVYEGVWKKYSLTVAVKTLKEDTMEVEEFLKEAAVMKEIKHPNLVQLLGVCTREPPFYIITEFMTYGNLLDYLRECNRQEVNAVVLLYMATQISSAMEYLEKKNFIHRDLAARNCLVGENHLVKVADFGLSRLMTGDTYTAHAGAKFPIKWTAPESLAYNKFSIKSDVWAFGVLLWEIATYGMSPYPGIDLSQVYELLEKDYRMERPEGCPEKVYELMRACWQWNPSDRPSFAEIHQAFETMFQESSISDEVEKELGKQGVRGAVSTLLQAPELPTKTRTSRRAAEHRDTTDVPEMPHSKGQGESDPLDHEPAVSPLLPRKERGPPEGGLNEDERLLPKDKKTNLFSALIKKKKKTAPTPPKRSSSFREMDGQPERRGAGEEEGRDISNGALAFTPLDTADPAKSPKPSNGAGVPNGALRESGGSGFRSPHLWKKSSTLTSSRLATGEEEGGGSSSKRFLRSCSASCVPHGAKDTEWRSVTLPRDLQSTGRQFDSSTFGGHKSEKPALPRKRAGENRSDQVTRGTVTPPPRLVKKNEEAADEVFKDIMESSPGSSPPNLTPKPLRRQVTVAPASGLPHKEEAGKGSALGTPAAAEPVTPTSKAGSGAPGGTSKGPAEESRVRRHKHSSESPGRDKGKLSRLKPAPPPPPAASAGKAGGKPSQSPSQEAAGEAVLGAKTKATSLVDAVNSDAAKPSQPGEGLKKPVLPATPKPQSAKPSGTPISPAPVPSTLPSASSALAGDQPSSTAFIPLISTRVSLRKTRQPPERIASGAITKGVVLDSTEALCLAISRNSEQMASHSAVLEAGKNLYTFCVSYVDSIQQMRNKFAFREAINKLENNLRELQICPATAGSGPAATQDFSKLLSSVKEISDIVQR
Chain of High affinity nerve growth factor receptor (Homo sapiens) (P04629 33-796 limits assumed): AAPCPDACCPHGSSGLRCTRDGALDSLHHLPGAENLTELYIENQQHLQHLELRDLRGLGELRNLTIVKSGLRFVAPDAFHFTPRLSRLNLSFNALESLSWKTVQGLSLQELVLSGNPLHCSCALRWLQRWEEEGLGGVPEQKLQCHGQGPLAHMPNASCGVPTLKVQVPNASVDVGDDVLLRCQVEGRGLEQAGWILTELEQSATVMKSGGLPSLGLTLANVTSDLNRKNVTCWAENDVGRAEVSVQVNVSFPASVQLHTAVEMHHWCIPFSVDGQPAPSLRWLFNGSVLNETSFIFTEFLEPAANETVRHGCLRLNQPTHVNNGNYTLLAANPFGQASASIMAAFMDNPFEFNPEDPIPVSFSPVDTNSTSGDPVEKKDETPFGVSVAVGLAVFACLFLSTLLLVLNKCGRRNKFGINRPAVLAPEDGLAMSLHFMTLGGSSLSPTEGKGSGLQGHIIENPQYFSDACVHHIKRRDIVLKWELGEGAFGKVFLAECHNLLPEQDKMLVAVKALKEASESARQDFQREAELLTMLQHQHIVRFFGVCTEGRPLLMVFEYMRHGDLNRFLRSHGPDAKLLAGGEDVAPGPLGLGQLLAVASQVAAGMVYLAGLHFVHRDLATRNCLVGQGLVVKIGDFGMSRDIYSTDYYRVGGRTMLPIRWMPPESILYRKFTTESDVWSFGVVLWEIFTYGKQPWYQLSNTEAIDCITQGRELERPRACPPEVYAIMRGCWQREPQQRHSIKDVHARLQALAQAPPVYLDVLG

Cc1cc(OCc2ccc(F)cc2F)c(Br)c(=O)n1Cc1ccc(CN(C)C)cc1
< 50%: all assays above
